Tests used:
[1] = system: integrin β5 clustering in SW620, HT29 and SW480 cells; experiment: Inhibition of β5 clustering (confocal microscopy); format: cell-based, human; details: cells fixed after 3 days of cilengitide treatment
Experimental: (§1) Fig. 6. Integrin β5 promotes colorectal cancer cell proliferation. […] Cells were fixed after 3 days of treatment and β5 (green in merge) and vinculin (magenta) were visualized using confocal microscopy. Cell nuclei are shown in blue. Scale bars: 20 μm. (B) Cells were seeded on day 0 and proliferation was measured from day 1–5 in cells with or without cilengitide (added at day 1). (C,E) FACS plots showing the expression of β5 in SW620 (C) and HT29 (E) wild-type (WT) and β5 knockout cells. Cells stained with a secondary PE-conjugated antibody only were used as negative control (n=2). (D,F) Proliferation of SW620 and HT29 wild-type and β5 knockout cells. (G) Representative IF images showing integrin β5 (green in merge), vinculin (red), actin (blue), nuclei (cyan) in SW620 wild-type, β5-deficient, and cilengitide-treated cells that were cultured for 5 days on coverslips prior to fixation. Scale bars: 100 μm. (H,I) Proliferation of SW620 (H) and HT29 (I) wild-type and β5 knockout cells on 3.2 μg ml^−1 collagen. Results shown represent mean±s.d. of three biological replicates, of which each experiment was performed in triplicate. *P<0.05 (two-sided unpaired Student's t-test).
(§2) PA-JEB/β4 keratinocytes were seeded on glass coverslips and cultured in complete KGM medium for 24 h, and then treated with DMEM plus 10% FCS for 24 h. […]

SW480 cells = experiment: Proliferation assay (Crystal Violet), SW480; format: cell-based, human; details: cilengitide added at day 1, measured day 1–5; concentration optimised per cell line, not given; three biological replicates
Experimental: as §1, with “Results shown represent mean±s.d. of three biological replicates, of which each experiment was performed in triplicate. *P<0.05 (two-sided unpaired Student's t-test).” left out
(§3) Cells were seeded at a density of 5×10^4 cells per well in a 96-well plate and treated with cilengitide or DMSO, as indicated in the figure legend. […] Cells were air-dried overnight and lysed in 2% SDS, after which the OD value of Crystal Violet at 490 nm was determined using an Epoch microplate reader equipped with Gen5 software. […]

HT29 cells = experiment: Proliferation assay (Crystal Violet), HT29; format: cell-based, human; details: cilengitide added at day 1, measured day 1–5; concentration optimised per cell line, not given; three biological replicates
Experimental: as §1, with “Results shown represent mean±s.d. of three biological replicates, of which each experiment was performed in triplicate. *P<0.05 (two-sided unpaired Student's t-test).” left out
as §3

SW620 cells [2] = experiment: Cell growth morphology (immunofluorescence), SW620; format: cell-based, human; details: cilengitide-treated SW620 cells cultured for 5 days on coverslips; control cells mainly formed a 2D monolayer
Experimental: as §1, §2

SW620 cells [3] = experiment: Proliferation assay (Crystal Violet), SW620; format: cell-based, human; details: cilengitide added at day 1, measured day 1–5; concentration optimised per cell line, not given; three biological replicates
Experimental: as §1, with “Results shown represent mean±s.d. of three biological replicates, of which each experiment was performed in triplicate. *P<0.05 (two-sided unpaired Student's t-test).” left out
as §3

integrin αVβ3/αVβ5 = details: stated as known, no reference given; cited from earlier work
Text: The integrin β5 plays a role in breast cancer and osteosarcoma cell proliferation ([Bianchi-Smiraglia et al., 2013]; [Lock et al., 2018]). Here, we analyzed the role of integrin β5 in cell proliferation of SW620, HT29 and SW480 colorectal cancer cells, in which β5 localizes predominantly in FCLs, FAs or is distributed equally in both adhesions, respectively. Because none of these cell lines express the integrin β3 subunit (Fig. S5A), we used the integrin αVβ3/αVβ5 antagonist cilengitide as a tool to inhibit αVβ5 function. The optimal concentration for inhibition was determined for each cell li ...

## cilengitide (RGDFV; chains of the INN, looked up) [integrin αVβ3/αVβ5 antagonist]
[1]
  inhibition of β5 clustering: Inhibition of β5 clustering
SW480 cells
  proliferation, SW480: significant decrease in proliferation
HT29 cells
  proliferation, HT29: significant decrease in proliferation
SW620 cells [2]
  growth phenotype: grew on top of each other
SW620 cells [3]
  proliferation, SW620: significant decrease in proliferation
Integrin αVβ3/αVβ5
  integrin αVβ3/αVβ5 antagonism: antagonist
